Measured values: patent US6783558B2, “Hair coloring method and composition” (Kao Corporation, priority 2001, dated 2004)

Columns and labels:
[1] = Dyeing of undamaged white goat tress with general composition, Examples 7-15; settings: 0.02 g dyestuff in 10 g general composition (Table 6), 20 mins at 50° C
Procedure: the following general composition was prepared for each of pyrazolotriazole direct dyes DS-3, DS-4, DS-6, DS-7 and DS-12 to DS-16. Each composition was applied to one undamaged white goat tress for 20 mins at 50° C. (1 g of tress was covered by 1.5 to 2 g of composition). After 20 mins the tresses were rinsed, shampoo washed and then dried before the colour was assessed.

[2] = Measurement of pKa value by spectrophotometric titration; format: physicochemical; settings: DMF/water (1/1) solution, 2×10^−5 mol/l, titrated from pH 2 with NaOH, visible ultra-violet absorption spectrum, read-out: pKa value determined
Procedure: The dissociative dye represents the dye that can release a proton and be anionic above a certain pH value. The pKa value can be determined by the following method: The sample is dissolved in a solution of a DMF/water (1/1) volume ratio to a final concentration of 2×10^−5 mol/l. After the resulting solution is adjusted to pH 2, using 1.0 mol/l hydrochloric acid, the solution is titrated with aqueous 1.0 mol/l sodium hydroxide solution. Recording the change of the visible ultra-violet absorption spectrum, the inflection point is determined by regression analysis.
pKa values of the dyestuffs DS-3 to DS-6, DS-7 and DS10 were determined by the following method: The dye was dissolved in a solution of a DMF/water (1/1) volume ratio to a final concentration of 2×10^−5 mol/l. After the resulting solution was adjusted to pH 2, using 1.0 mol/l hydrochloric acid, the solution was titrated with aqueous 1.0 mol/l sodium hydroxide solution. Recording the change of the visible ultra-violet absorption spectrum, the inflection point was determined by regression analysis.

[3] = Compatibility with hydrogen peroxide, Examples 18-21; design: species or system human; settings: for Delta a (change in red colour): 0.02 g dyestuff in 10 g, undamaged human blond hair, 20 mins at 50° C; for stability to alkaline peroxide: composition with ammonia and hydrogen peroxide
Procedure: The following general compositions in Table 10 were prepared for each of pyrazolotriazole direct dyes DS-4 and DS-6.
Each composition was applied to one undamaged human blond hair for 20 mins at 50° C. After 20 mins the tresses were rinsed, shampoo washed and then dried before the colour was assessed.

| Compound | Colouring Result [1] | Delta E [1] | L [1] | a [1] | b [1] | pKa [2] | Delta a (change in red colour) ([3]; H2O2 3 wt %) | Delta a (change in red colour) ([3]; H2O2 None) | stability to alkaline peroxide [3] |
| --- | --- | --- | --- | --- | --- | --- | --- | --- | --- |
| CC(C)c1nc2n(n1)N=C(c1ccccc1Cl)/C2=N/c1cc(Cl)c(O)c(Cl)c1 [DS-15] | Violet | 55 | 51 | 33 | −17 | – | – | – | – |
| CC(C)(C)C1=Nn2nc(-c3ccc(NS(C)(=O)=O)cc3)nc2/C1=N\c1cc(Cl)c(O)c(Cl)c1 [DS-16] | Bright pink | 52 | 55 | 41 | −3 | – | – | – | – |
| CC1=Nn2c(C)nnc2/C1=N\c1cc(Cl)c(O)c(Cl)c1 [DS-5] | – | – | – | – | – | 4.34 | – | – | – |
| Cc1nnc2n1N=C(C(C)(C)C)/C2=N/c1cc(Cl)c(O)c(Cl)c1 [DS-6] | Bright pink | 55 | 57 | 42 | −7 | – | 30 | 15 | stable to alkaline peroxide |
| Cc1nc2n(n1)N=C(C(C)(C)C)/C2=N/c1cc(Cl)c(O)c(Cl)c1 [DS-4] | Bright, intense magenta | 75 | 38 | 60 | 16 | 3.88 | 39 | 27 | stable to alkaline peroxide |
| CC1=Nn2nc(C(C)CN)nc2/C1=N\c1cc(Cl)c(O)c(Cl)c1 (stereo not shown) [DS-10] | – | – | – | – | – | 3.38 | – | – | – |
| CC(C)c1nc2n(n1)N=C(C(C)(C)C)/C2=N/c1cc(Cl)c(O)c(Cl)c1 [DS-7] | Pink | 60 | 50 | 50 | −8 | 3.92 | – | – | – |
| CSc1nnc2n1N=C(c1ccccc1)/C2=N/c1cc(Cl)c(O)c(Cl)c1 [DS-12] | Violet | 59 | 48 | 29 | −26 | – | – | – | – |
| CC1=Nn2nc(C)nc2/C1=N\c1cc(Cl)c(O)c(Cl)c1 [DS-3] | Bright, intense magenta | 81 | 30 | 54 | −12 | 3.78 | – | – | – |
